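Method: 48-hour compound exposure of cells in 96-well plates, five concentrations, linear interpolation of endpoints. At the GI50, growth is halved. TGI: total growth inhibition.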
What was measured:
Assay in all cases: NCI anticancer screen, dose series, 48 h
SNB-75 CNS = tested on: SNB-75 CNS
OVCAR-8 ovarian = tested on: OVCAR-8 ovarian
SK-MEL-5 melanoma = tested on: SK-MEL-5 melanoma
IGROV1 ovarian = tested on: IGROV1 ovarian
SR leukemia = tested on: SR leukemia
OVCAR-4 ovarian = tested on: OVCAR-4 ovarian
M14 melanoma = tested on: M14 melanoma
MALME-3M melanoma = tested on: MALME-3M melanoma
K-562 leukemia = tested on: K-562 leukemia
HCT-116 colon = tested on: HCT-116 colon

Structure (SMILES) | TGI (SNB-75 CNS) [µM] | TGI (OVCAR-8 ovarian) [µM] | TGI (SK-MEL-5 melanoma) [µM] | TGI (IGROV1 ovarian) [µM] | TGI (SR leukemia) [µM] | TGI (OVCAR-4 ovarian) [µM] | TGI (M14 melanoma) [µM] | TGI (MALME-3M melanoma) [µM] | TGI (K-562 leukemia) [µM] | TGI (HCT-116 colon) [µM] | GI50 (SNB-75 CNS) [µM] | GI50 (OVCAR-8 ovarian) [µM] | GI50 (SK-MEL-5 melanoma) [µM] | GI50 (IGROV1 ovarian) [µM] | GI50 (SR leukemia) [µM] | GI50 (OVCAR-4 ovarian) [µM] | GI50 (M14 melanoma) [µM] | GI50 (MALME-3M melanoma) [µM] | GI50 (K-562 leukemia) [µM] | GI50 (HCT-116 colon) [µM]
Cc1ccc2occ/c(=N\Nc3ccccc3)c2c1 | 63.2 | > 100 | > 100 | > 100 | > 100 | > 100 | > 100 | > 100 | > 100 | > 100 |  |  |  |  |  |  |  |  |  | 
CC(C)(C)c1cc(C(=O)/C=C/c2ccc(C(=O)O)cc2)cc(C(C)(C)C)c1 | 15 | 7.13 | 14.7 | 12.2 | 6.16 | 19 | 3.89 | 7.99 | > 100 | 10.4 |  |  |  |  |  |  |  |  |  | 
CC1=NC(C)(COC(=O)C2(C)NC(C)(CO)CO2)COC1=O (stereo not given) | > 100 | > 100 | > 100 | > 100 | > 100 | > 100 | > 100 | > 100 | > 100 | > 100 |  |  |  |  |  |  |  |  |  | 
COc1ccc2nc3cc(Cl)ccc3c(Sc3ccc(NC(C)=O)cc3)c2c1 | > 54.9 | > 21.1 | > 45.5 | > 56 | 16.1 | > 52.6 | > 38.5 | > 51.8 | > 100 | > 45.3 |  |  |  |  |  |  |  |  |  | 
NC(N)=N/N=C(\N=Nc1ccccc1)c1ccc(Cl)cc1 | 17.8 | 9.58 | 14.8 | 23 | 4.72 | 12.6 | 4.39 | 17.2 | 6.37 | 3.6 | 4.67 | 2.81 | 3.73 | 7.32 | 1.93 | 1.79 | 1.51 | 4.68 | 1.2 | 1.7
COC(=O)[C@]12CC[C@@H](C)[C@H](C)[C@@H]1C1=CC[C@@H]3[C@@]4(C)C(C=O)=C[C@@](C)(COC(=O)c5ccco5)[C@@H]4[C@H](O)C[C@@]3(C)[C@]1(C)CC2 | 4.12 | 13.4 | 1.65 | > 100 | 5.13 | 28.2 | 2.6 | 1.17 | 9.96 | 2.59 | 1.49 | 2.9 | 0.453 | 3.03 | 1.8 | 2.38 | 0.305 | 0.224 | 2.96 | 1.19
O=C(NNc1cnccn1)c1nc2cc(F)ccc2n2cccc12 | > 30.4 | > 100 | 3.13 | > 100 | > 100 | 0.964 | 14.5 | > 100 | > 100 | > 100 | 1.31 | 0.429 | 1.07 | 0.503 | 0.247 | 0.211 | 0.34 | 1.06 | 0.387 | 0.46
Cc1sc2c(c1C)C(c1ccc(Cl)cc1)=N[C@@H](CC(=O)Nc1ccc(OCCOCCOCCOCCNc3cccc4c3C(=O)N(C3CCC(=O)NC3=O)C4=O)cc1)c1nnc(C)n1-2 (stereo not given in full) |  | > 100 | 27.5 | > 100 | > 100 | > 100 | > 100 | > 100 | > 100 | > 100 | < 0.01 | < 0.0193 | 0.195 |  | < 0.0219 | < 0.0174 | 0.388 | > 100 | 0.293 | 
CC1COS(=O)O1 (stereo not given) | > 100 | > 100 | > 100 | > 100 | > 100 | > 100 | > 100 | > 100 | > 100 | > 100 |  |  |  |  |  |  |  |  |  | 
CC(C)(C)OC(=O)N1C2CCCC23O[C@@H]1c1cc2c(cc1C3=O)OCO2 (stereo not given in full) | 56.8 | > 100 | 26.1 | > 100 | > 100 | > 100 | > 100 | > 100 | > 100 | > 100 |  |  |  |  |  |  |  |  |  | 
CC1(C)N=C(N)N=C(N)N1c1cccc(OCCOc2cccc([N+](=O)[O-])c2)c1 | > 100 | > 100 | 33.5 | > 100 | > 100 | > 100 | > 100 | > 100 | > 100 | > 100 | 3.26 | 38.6 | 4.5 | 0.565 | 0.543 | 14.4 | 14.4 | 7.54 | 2.1 | 0.777
COc1ccc(-c2ccc(NNC(=O)c3ccc(F)cc3)nn2)cc1OC | > 100 |  | > 100 | > 100 | > 100 | > 100 | > 100 | > 100 | > 100 | > 100 | 26.9 |  | 45 | 63.3 | > 100 | 55.3 | > 100 | > 100 | 58.7 | > 100
O=C1C=CC(=CC=C2C=CN(CCCCCCCCCCC(=O)NCCCCCCCCCCCC(=O)O)C=C2)C=C1 | > 100 | > 100 | > 100 | > 100 | > 100 | > 100 | > 100 | > 100 | > 100 | > 100 |  |  |  |  |  |  |  |  |  | 
O=C1c2ccccc2C(=O)N1C/C=N/NS(=O)(=O)c1ccc(Br)cc1 | > 100 | > 100 | > 100 | > 100 | > 100 | > 100 | > 100 | > 100 | > 100 | > 100 |  |  |  |  |  |  |  |  |  | 
CC(=O)NC1CONC1=O (stereo not given) | > 100 | > 100 | > 100 | > 100 | > 100 | > 100 | > 100 | > 100 | > 100 | > 100 |  |  |  |  |  |  |  |  |  | 
CS(=O)(=O)CS(=O)(=O)OCCCl | 256 | 1270 | 777 | 911 | 876 | 1040 | 770 | 1270 | 3120 | 661 |  |  |  |  |  |  |  |  |  | 
C=CCn1c(SCC(=O)Nc2ccc(C(=O)/C=C/c3cc(OC)c(OC)c(OC)c3)cc2)nnc1-c1ccc(OC)cc1 | 9.19 | 10 | 2.27 | 1.9 | > 46.1 | 10.5 | 2.58 | 36.8 | > 100 | 0.52 | 0.311 | 0.755 | 0.79 | 0.324 | 0.255 | 0.783 | 0.404 | 1.89 | 0.363 | 0.223

— PubChem BioAssay (NCI)
